Data published in US12378201B2, “Histone demethylase inhibitors for treating cancers” (The Board of Regents of the University of Texas System, priority 2019, dated 2025).

Legend:
[1] = test system: prostate and kidney cancer cells; experiment: Cell growth inhibition / anti-proliferation (MTT); assay type: cell-based, human
Description: Results of MTT assays for compounds disclosed herein can be found in FIGS. 1, 2A-2C, 3, 4, 5, 6, 7, 8, 9, 10A-10C, and 11A-11C.

[2] = test system: castration resistant prostate cancer cell line 22RV1; experiment: 22RV1 xenograft tumor growth in NOD/SCID mice; assay type: in vivo; conditions: in words
Method: All animal work was approved by the Institutional Animal Care and Use Committee. NOD/SCID mice (6-8 weeks old) were subcutaneously injected in the flank region with castration resistant prostate cancer cell line 22RV1 (1×10^6 cells/site) mixed with 50% Matrigel (BD Biosciences). When tumor volumes reached 50-100 mm^3 in size, animals were randomly divided into 5 groups: control (DMSO); B3 (50 or 10 mg/kg in DMSO); SS-79N (20 or 10 mg/kg in DMSO). Each group included six mice. Tumor volume (cubic millimeters) was measured by caliper twice a week and calculated by using the ellipsoid formula (π/6×length×width×depth, see FIGS. 12A-12B).

[3] = test system: LNCaP and 22rv1 cell lines; experiment: SAR statements on LNCaP and 22rv1 cell lines; assay type: cell-based; conditions: LNCaP 1 μM, 22rv1 0.5 μM
Method: All compounds were evaluated for their effects on LNCaP and 22rv1 cell lines at 1 and 0.5 μM concentrations, respectively. […] For this purpose different analogues of B-3 with chain length varying from 0 to 4 carbon were synthesized (Table 1). […] In view of the availability of a variety of commercially available benzyl amines over phenyl propyl amines and method to functionalize analogues with 1C chain compound 14c was selected for further modification.

LnCap cells = experiment: Effect on LnCap cell viability; conditions: 1 μM
Method: The initial interest was to see the importance of length of side chain on B-3. […] Relative cell growth can be assessed using the MTT (3-(4,5-dimethylthiazol-2-yl)-2,5-diphenyltetrazolium bromide) assay, a colorimetric assay for assessing cell metabolic activity. Cells (1000 to 2000 cells/well) in 150 μL culture medium were seeded in wells of a 96-well plate one day before various concentrations of drugs were added. After continuing culture in the presence of the drugs for the indicated time (3-4 days), 20 μL of 5 mg/mL MTT solution (Sigma-Aldrich) was added into each well. After incubation at 37° C. for 30 min, the culture medium was removed and 100 μL of DMSO was added to dissolve MTT crystals. Plates were shaken for 15 min at room temperature and absorbance at OD590 was read by plate reader.

Q: With `O=C(NCc1ccc(C(=O)NC2CCC(C(F)(F)F)CC2)cc1)c1cccc(-c2cc(O)c3ncccc3c2)c1` (stereo not drawn) [Compound 17l] as the molecule, how does the “increase in potency compared to other 8-hydroxyquinoline-containing compounds, such as B3” value ([1]; IC50 versus B3) read?
A: Its value is “more than 20 fold”.

Q: And the “efficacy compared with the known GSK KDM6B inhibitor” value ([1]; in words)?
A: The value was “much better efficacy than the known GlaxoSmithKline (GSK) KDM6B inhibitor”.

Q: What about the IC50 ([1]; prostate and kidney cancer cells) of the same molecule?
A: The IC50 was under 200 nM.

Q: And the in vivo efficacy [2]?
A: Its in vivo efficacy is “favorable in vivo efficacy”.

Q: And the “activity on cell lines, in words (SAR)” value [3]?
A: Its value is “improved further”.

Q: And the “% Cell Viability of LnCap cells at 1 μM” value (LnCap cells)?
A: Its value is 24.2%.
